Experimental findings from US9533952B2, “N-prop-2-ynyl carboxamide derivatives and their use as TRPA1 antagonists” (Orion Corporation, priority 2012, dated 2017) are described below.

The experiment deals with TRPA1 (Homo sapiens, UniProt O75762). In words: Determination of TRPA1 activity in vitro (TRPA1 antagonism in vitro). In kind it is cell-based. The settings on record: procedure of Wei et al., Anesthesiology 111 (2009) 147-154.
Chain of TRPA1 (O75762 whole entry): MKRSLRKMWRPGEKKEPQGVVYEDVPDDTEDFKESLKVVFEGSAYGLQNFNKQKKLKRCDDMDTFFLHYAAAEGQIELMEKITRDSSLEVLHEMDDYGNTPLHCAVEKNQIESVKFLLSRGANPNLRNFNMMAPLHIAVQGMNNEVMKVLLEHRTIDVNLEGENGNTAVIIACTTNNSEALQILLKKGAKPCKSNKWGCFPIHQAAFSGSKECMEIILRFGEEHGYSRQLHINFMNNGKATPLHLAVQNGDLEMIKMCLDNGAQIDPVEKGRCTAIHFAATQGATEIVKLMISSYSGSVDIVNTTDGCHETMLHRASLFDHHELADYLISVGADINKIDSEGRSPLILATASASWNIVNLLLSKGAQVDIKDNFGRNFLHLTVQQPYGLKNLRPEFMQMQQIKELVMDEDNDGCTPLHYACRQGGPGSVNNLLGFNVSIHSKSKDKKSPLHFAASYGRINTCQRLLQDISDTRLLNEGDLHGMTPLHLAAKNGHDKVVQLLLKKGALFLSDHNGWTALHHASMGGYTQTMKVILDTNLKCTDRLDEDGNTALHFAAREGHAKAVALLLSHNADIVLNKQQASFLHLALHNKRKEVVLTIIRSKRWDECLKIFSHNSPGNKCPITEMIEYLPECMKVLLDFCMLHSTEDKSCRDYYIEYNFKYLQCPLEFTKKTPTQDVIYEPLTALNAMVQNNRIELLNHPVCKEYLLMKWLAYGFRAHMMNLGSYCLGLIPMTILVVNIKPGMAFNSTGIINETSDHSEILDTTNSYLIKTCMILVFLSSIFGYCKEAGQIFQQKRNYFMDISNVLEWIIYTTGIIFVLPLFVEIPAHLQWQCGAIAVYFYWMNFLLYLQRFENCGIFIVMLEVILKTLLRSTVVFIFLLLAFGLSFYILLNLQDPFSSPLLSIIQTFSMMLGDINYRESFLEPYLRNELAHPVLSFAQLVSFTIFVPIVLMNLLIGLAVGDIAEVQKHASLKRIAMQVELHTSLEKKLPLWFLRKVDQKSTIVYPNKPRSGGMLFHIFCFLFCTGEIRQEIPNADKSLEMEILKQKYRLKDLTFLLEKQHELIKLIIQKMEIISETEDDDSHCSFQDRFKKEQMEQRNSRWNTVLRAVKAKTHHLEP

A word on the IC50: it is the point on the concentration scale where inhibition reaches its midpoint. Read a high IC50 as lower potency. `C#CC(C)(C)NC(=O)c1cc(C(F)(F)F)cnc1NCCC(F)F` [Example 58, 2-(3,3-Difluoropropylamino)-N-(2-methylbut-3-yn-2-yl)-5-(trifluoromethyl)nicotinamide] gave an IC50 of 1.1 µM.
For `C#CC(C)(C)NC(=O)c1cnc(C(F)(F)F)nc1NC(C)C` [Example 110, 4-(Isopropylamino)-N-(2-methylbut-3-yn-2-yl)-2-(trifluoromethyl)-pyrimidine-5-carboxamide] the value was 12 µM.
`C#CC(C)(C)NC(=O)c1ccccc1NCCC(F)(F)F` [Example 79, N-(2-Methylbut-3-yn-2-yl)-2-(3,3,3-trifluoropropylamino)benzamide] gave an IC50 of 1.8 µM.
The compound `C#CC(C)(CC)NC(=O)c1cc(F)cnc1Nc1cccc(C#N)c1` (stereo not drawn) [Example 178, 2-(3-Cyanophenylamino)-5-fluoro-N-(3-methylpent-1-yn-3-yl)nicotinamide] registered an IC50 of 0.9 µM. This IC50 lies about 2-fold lower than the previous one.
With `C#CC(C)(C)NC(=O)c1cc(F)cnc1NC1CCC1` [Example 25, 2-(Cyclobutylamino)-5-fluoro-N-(2-methylbut-3-yn-2-yl)nicotinamide] the figure was 3 µM.
The compound `C#CC(C)(CC)NC(=O)c1cccnc1Nc1cc(Cl)cc(OC)c1` (stereo not drawn) [Example 168, 2-(3-Chloro-5-methoxyphenylamino)-N-(3-methylpent-1-yn-3-yl)nicotinamide] showed a half-maximal inhibitory concentration (IC50) of 0.8 µM. Against the preceding compound, the IC50 is about 3.8-fold lower.
`C#CC(C)(C)NC(=O)c1cc(C)ccc1NCCC(F)(F)F` [Example 77, 5-Methyl-N-(2-methylbut-3-yn-2-yl)-2-(3,3,3-trifluoropropylamino)-benzamide] displayed an IC50 of 0.9 µM.
With `C#CC(C)(C)NC(=O)c1cccnc1Nc1ccccc1` [Example 127, N-(2-Methylbut-3-yn-2-yl)-2-(phenylamino)nicotinamide] the figure was 4.4 µM.
As to `C#CC(C)(C)NC(=O)c1ccc(C(F)(F)F)nc1NCC1CCOCC1` [Example 116, N-(2-Methylbut-3-yn-2-yl)-2-((tetrahydro-2H-pyran-4-yl)methyl-amino)-6-(trifluoromethyl)nicotinamide], 1.6 µM corresponded to half-maximal inhibition (IC50).
For `C#CC(C)(CC)NC(=O)c1cccnc1Nc1cccc(OC)c1F` (stereo not drawn) [Example 170, 2-(2-Fluoro-3-methoxyphenylamino)-N-(3-methylpent-1-yn-3-yl)nicotinamide] the value was 4.9 µM; for `C#CC(C)(C)NC(=O)c1cc(F)cnc1Nc1ccc(F)cc1` [Example 157, 5-Fluoro-2-(4-fluorophenylamino)-N-(2-methylbut-3-yn-2-yl)nicotinamide], 0.7 µM; for `C#CC(C)(C)NC(=O)c1cc(Cl)cnc1NC1CCC1` [Example 27, 5-Chloro-2-(cyclobutylamino)-N-(2-methylbut-3-yn-2-yl)nicotinamide], 0.7 µM.
The compound `C#CC(C)(CC)NC(=O)c1cc(Cl)cnc1NC1CC(F)(F)C1` (stereo not drawn) [Example 177, 5-Chloro-2-(3,3-difluorocyclobutylamino)-N-(3-methylpent-1-yn-3-yl)nicotinamide] registered a 50% inhibitory concentration (IC50) of 0.3 µM. This IC50 lies about 2.3-fold lower than the previous one.
With `C#CC(C)(C)NC(=O)c1cc(Cl)cnc1NCC(F)F` [Example 32, 5-Chloro-2-(2,2-difluoroethylamino)-N-(2-methylbut-3-yn-2-yl)nicotinamide] the figure was 3.8 µM; with `C#CC(C)(C)NC(=O)c1ccc(Cl)nc1NC(C)C` [Example 112, 6-Chloro-2-(isopropylamino)-N-(2-methylbut-3-yn-2-yl)nicotinamide], 3.4 µM; with `C#CC(C)(C)NC(=O)c1ccc(Cl)cc1NCCC` [Example 13, 4-Chloro-N-(2-methylbut-3-yn-2-yl)-2-(propylamino)benzamide], 0.8 µM.
In turn, `C#CC(C)(C)NC(=O)c1ccc(C(F)(F)F)cc1NCCOC` [Example 89, 2-(2-Methoxyethylamino)-N-(2-methylbut-3-yn-2-yl)-4-(trifluoro-methyl)benzamide] showed a half-maximal inhibitory concentration (IC50) of 8.6 µM. This IC50 is about 11-fold higher than that of the compound before.
With `C#CC(C)(C)NC(=O)c1cc(C)ccc1NCC(F)(F)C(F)(F)F` [Example 30, 5-Methyl-N-(2-methylbut-3-yn-2-yl)-2-(2,2,3,3,3-pentafluoropropyl-amino)benzamide] the figure was 0.3 µM.
